Legend:
Experiment in all cases: relative viability (nuclei count vs DMSO), 5 days (fraction); higher = more cells survive
NCI-H2087 = tested on: NCI-H2087
Method in brief: (§1)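 Lung cancer cell lines were pin-tool dosed in 1536-well plates on the day after seeding, with either a lone drug or a fixed anchor-drug dose plus five library-drug doses (not always all listed) in √10 steps. Nuclei were counted on 4× images after 5 days. Relative viability is the ratio of treated-well to vehicle-well nuclei counts, with each value a median of duplicate plates.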

NCI-H1651 = tested on: NCI-H1651
Method in brief: as §1

ChaGo-K-1 = tested on: ChaGo-K-1
Method in brief: as §1

LCLC-97TM1 = tested on: LCLC-97TM1
Method in brief: as §1

BEN = tested on: BEN
Method in brief: as §1

LXF-289 = tested on: LXF-289
Method in brief: as §1

LU99A = tested on: LU99A
Method in brief: as §1

UMC-11 = tested on: UMC-11
Method in brief: as §1

H3255 = tested on: H3255
Method in brief: as §1

SK-MES-1 = tested on: SK-MES-1
Method in brief: as §1

LC-2-ad = tested on: LC-2-ad
Method in brief: as §1

PC-3 [JPC-3] = tested on: PC-3 [JPC-3]
Method in brief: as §1

NCI-H838 = tested on: NCI-H838
Method in brief: as §1

NCI-H650 = tested on: NCI-H650
Method in brief: as §1

NCI-H322M = tested on: NCI-H322M
Method in brief: as §1

NCI-H1666 = tested on: NCI-H1666
Method in brief: as §1

NCI-H1944 = tested on: NCI-H1944
Method in brief: as §1

HCC-78 = tested on: HCC-78
Method in brief: as §1

HCC-15 = tested on: HCC-15
Method in brief: as §1

NCI-H358 = tested on: NCI-H358
Method in brief: as §1

LK-2 = tested on: LK-2
Method in brief: as §1

NCI-H2342 = tested on: NCI-H2342
Method in brief: as §1

NCI-H661 = tested on: NCI-H661
Method in brief: as §1

SMILES: Clc1ccc(Nc2nnc(Cc3ccncc3)c3ccccc23)cc1 [Vatalanib] + CC(=O)c1c(C)c2cnc(Nc3ccc(N4CCNCC4)cn3)nc2n(C2CCCC2)c1=O [Palbociclib] (partner 0.5 µM)
- relative viability (NCI-H2087; first compound 0.04 µM): 0.251
- relative viability (NCI-H2087; first compound 0.1265 µM): 0.209
- relative viability (NCI-H2087; first compound 0.4 µM): 0.205
- relative viability (NCI-H2087; first compound 1.265 µM): 0.268
- relative viability (NCI-H2087; first compound 4 µM): 0.22
- relative viability (NCI-H1651; first compound 0.04 µM): 0.51
- relative viability (NCI-H1651; first compound 0.1265 µM): 0.496
- relative viability (NCI-H1651; first compound 0.4 µM): 0.479
- relative viability (NCI-H1651; first compound 1.265 µM): 0.532
- relative viability (NCI-H1651; first compound 4 µM): 0.513
- relative viability (ChaGo-K-1; first compound 0.04 µM): 0.998
- relative viability (ChaGo-K-1; first compound 0.1265 µM): 0.885
- relative viability (ChaGo-K-1; first compound 0.4 µM): 0.945
- relative viability (ChaGo-K-1; first compound 1.265 µM): 0.969
- relative viability (ChaGo-K-1; first compound 4 µM): 0.961
- relative viability (LCLC-97TM1; first compound 0.04 µM): 0.172
- relative viability (LCLC-97TM1; first compound 0.1265 µM): 0.252
- relative viability (LCLC-97TM1; first compound 0.4 µM): 0.194
- relative viability (LCLC-97TM1; first compound 1.265 µM): 0.247
- relative viability (LCLC-97TM1; first compound 4 µM): 0.21
- relative viability (BEN; first compound 0.04 µM): 0.474
- relative viability (BEN; first compound 0.1265 µM): 0.456
- relative viability (BEN; first compound 0.4 µM): 0.948
- relative viability (BEN; first compound 1.265 µM): 0.489
- relative viability (BEN; first compound 4 µM): 0.489
- relative viability (LXF-289; first compound 0.04 µM): 0.611
- relative viability (LXF-289; first compound 0.1265 µM): 0.544
- relative viability (LXF-289; first compound 0.4 µM): 0.599
- relative viability (LXF-289; first compound 1.265 µM): 0.585
- relative viability (LXF-289; first compound 4 µM): 0.556
- relative viability (LU99A; first compound 0.04 µM): 0.418
- relative viability (LU99A; first compound 0.1265 µM): 0.383
- relative viability (LU99A; first compound 0.4 µM): 0.435
- relative viability (LU99A; first compound 1.265 µM): 0.355
- relative viability (LU99A; first compound 4 µM): 0.415
- relative viability (UMC-11; first compound 0.04 µM): 0.3
- relative viability (UMC-11; first compound 0.1265 µM): 0.316
- relative viability (UMC-11; first compound 0.4 µM): 0.34
- relative viability (UMC-11; first compound 1.265 µM): 0.356
- relative viability (UMC-11; first compound 4 µM): 0.338
- relative viability (H3255; first compound 0.04 µM): 0.308
- relative viability (H3255; first compound 0.1265 µM): 0.273
- relative viability (H3255; first compound 0.4 µM): 0.325
- relative viability (H3255; first compound 1.265 µM): 0.296
- relative viability (H3255; first compound 4 µM): 0.309
- relative viability (SK-MES-1; first compound 0.04 µM): 0.339
- relative viability (SK-MES-1; first compound 0.1265 µM): 0.309
- relative viability (SK-MES-1; first compound 0.4 µM): 0.347
- relative viability (SK-MES-1; first compound 1.265 µM): 0.309
- relative viability (SK-MES-1; first compound 4 µM): 0.305
- relative viability (LC-2-ad; first compound 0.04 µM): 0.494
- relative viability (LC-2-ad; first compound 0.1265 µM): 0.448
- relative viability (LC-2-ad; first compound 0.4 µM): 0.544
- relative viability (LC-2-ad; first compound 1.265 µM): 0.452
- relative viability (LC-2-ad; first compound 4 µM): 0.471
- relative viability (PC-3 [JPC-3]; first compound 0.04 µM): 0.515
- relative viability (PC-3 [JPC-3]; first compound 0.1265 µM): 0.549
- relative viability (PC-3 [JPC-3]; first compound 0.4 µM): 0.573
- relative viability (PC-3 [JPC-3]; first compound 1.265 µM): 0.538
- relative viability (PC-3 [JPC-3]; first compound 4 µM): 0.544
- relative viability (NCI-H838; first compound 0.04 µM): 0.227
- relative viability (NCI-H838; first compound 0.1265 µM): 0.235
- relative viability (NCI-H838; first compound 0.4 µM): 0.218
- relative viability (NCI-H838; first compound 1.265 µM): 0.203
- relative viability (NCI-H838; first compound 4 µM): 0.215
- relative viability (NCI-H650; first compound 0.04 µM): 0.308
- relative viability (NCI-H650; first compound 0.1265 µM): 0.316
- relative viability (NCI-H650; first compound 0.4 µM): 0.298
- relative viability (NCI-H650; first compound 1.265 µM): 0.32
- relative viability (NCI-H650; first compound 4 µM): 0.32
- relative viability (NCI-H322M; first compound 0.04 µM): 0.432
- relative viability (NCI-H322M; first compound 0.1265 µM): 0.492
- relative viability (NCI-H322M; first compound 0.4 µM): 0.49
- relative viability (NCI-H322M; first compound 4 µM): 0.501
- relative viability (NCI-H1666; first compound 0.04 µM): 0.646
- relative viability (NCI-H1666; first compound 0.1265 µM): 0.624
- relative viability (NCI-H1666; first compound 0.4 µM): 0.643
- relative viability (NCI-H1666; first compound 1.265 µM): 0.616
- relative viability (NCI-H1666; first compound 4 µM): 0.667
- relative viability (NCI-H1944; first compound 0.04 µM): 0.324
- relative viability (NCI-H1944; first compound 0.1265 µM): 0.301
- relative viability (NCI-H1944; first compound 0.4 µM): 0.364
- relative viability (NCI-H1944; first compound 1.265 µM): 0.29
- relative viability (NCI-H1944; first compound 4 µM): 0.319
- relative viability (HCC-78; first compound 0.04 µM): 0.471
- relative viability (HCC-78; first compound 0.1265 µM): 0.459
- relative viability (HCC-78; first compound 0.4 µM): 0.473
- relative viability (HCC-78; first compound 1.265 µM): 0.422
- relative viability (HCC-78; first compound 4 µM): 0.485
- relative viability (HCC-15; first compound 0.04 µM): 0.711
- relative viability (HCC-15; first compound 0.1265 µM): 0.676
- relative viability (HCC-15; first compound 0.4 µM): 0.759
- relative viability (HCC-15; first compound 1.265 µM): 0.691
- relative viability (HCC-15; first compound 4 µM): 0.668
- relative viability (NCI-H358; first compound 0.04 µM): 0.139
- relative viability (NCI-H358; first compound 0.1265 µM): 0.131
- relative viability (NCI-H358; first compound 0.4 µM): 0.149
- relative viability (NCI-H358; first compound 1.265 µM): 0.123
- relative viability (NCI-H358; first compound 4 µM): 0.136
- relative viability (LK-2; first compound 0.04 µM): 0.41
- relative viability (LK-2; first compound 0.1265 µM): 0.694
- relative viability (LK-2; first compound 0.4 µM): 0.796
- relative viability (LK-2; first compound 1.265 µM): 0.762
- relative viability (LK-2; first compound 4 µM): 0.748
- relative viability (NCI-H2342; first compound 0.04 µM): 0.489
- relative viability (NCI-H2342; first compound 0.1265 µM): 0.507
- relative viability (NCI-H2342; first compound 0.4 µM): 0.46
- relative viability (NCI-H2342; first compound 1.265 µM): 0.579
- relative viability (NCI-H2342; first compound 4 µM): 0.593
- relative viability (NCI-H661; first compound 0.04 µM): 0.411
- relative viability (NCI-H661; first compound 0.1265 µM): 0.387
- relative viability (NCI-H661; first compound 0.4 µM): 0.441
- relative viability (NCI-H661; first compound 1.265 µM): 0.397
- relative viability (NCI-H661; first compound 4 µM): 0.401

From the supplement of paper PMC10307832
